Data: ChEMBL document CHEMBL1150556, “Tetraazaacenaphthene, tetraazaphenalene and 1,3,4-thiadiazole derivatives as potential leishmanicides” (1997)

Key:
[1] = tested on: Leishmania donovani; assay: In vivo leishmanicidal activity determined against amastigotes of Leishmania donovani in golden hamsters; conditions: Mesocricetus auratus; dose or concentration not given here
[2] = tested on: Leishmania donovani; assay: In vitro leishmanicidal activity determined by measuring 3H thymidine incorporation in promastigotes of Leishmania donovani; format: functional; design: concentration or dose not given beside the values
[3] = In vivo leishmanicidal activity determined against amastigotes of Leishmania donovani in golden hamsters; format: functional, Mesocricetus auratus; design: concentration or dose not given beside the values
[4] = tested on: Cricetulus griseus; assay: TThe in vivo leishmanicidal activity of compound was determined against amastigotes of Leishmania donovani in golden hamsters (Mesocricetus auratus) at dose of 50 mg/kg for 5 days; Toxic; format: functional, organism-based; design: dose 50 mg/kg
[5] = tested on: Leishmania donovani; assay: In vitro leishmanicidal activity of compound was determined by measuring 3H thymidine incorporation in promastigotes of Leishmania donovani at concentration of 100 uM; format: functional

Molecule	Inhibition [2] [%]	Inhibition [3] [%]	also measured
Sodium stibogluconate	–	–	inhibition [1]: 100%
N#CC(=C1SCCS1)c1nnc(N)s1	18	–	–
N=c1c2c(=O)n(-c3ccccc3)c(=S)n3c2n(c(=S)n1-c1ccccc1)CC3	99.3	78.6	–
CCO/C(O)=C(\C1=NCCN1)c1nnc(N)s1	0	–	–
CCn1c(=N)c2c(=O)n(CC)c(=S)n3c2n(c1=S)CCC3	99.2	50.7	–
CCOC(=O)C(=C1SCCCS1)c1nnc(N)s1	0	–	–
O=c1c2c(=O)n(-c3ccc(F)cc3)c(=S)n3c2n(c(=S)n1-c1ccc(F)cc1)CC3	50	0	–
N=c1c2c(=O)n(-c3ccc(F)cc3)c(=S)n3c2n(c(=S)n1-c1ccc(F)cc1)CC3	99.3	–	inhibition [4]: Toxic
CCO/C(O)=C(\C1=NCCN1)c1nn2cc(-c3ccc(Cl)cc3)nc2s1	40	0	–
N=C(N)c1ccc(OCCCCCOc2ccc(C(=N)N)cc2)cc1 [PENTAMIDINE]	–	–	inhibition at 100 µM [5]: 100%
O=c1c2c(=O)n(-c3ccccc3)c(=S)n3c2n(c(=S)n1-c1ccccc1)CC3	85	81.3	–
Cc1ccccc1-n1c(=O)c2c(=O)n(-c3ccccc3C)c(=O)n3c2n(c1=O)CC3	93	0	–
Cc1ccccc1-n1c(=N)c2c(=O)n(-c3ccccc3C)c(=O)n3c2n(c1=O)CC3	7	–	–
CCO/C(O)=C(\C1=NCCCN1)c1nnc(N)s1	73	44.7	–
CCOC(=O)C(=C1SCCS1)c1nnc(N)s1	0	–	–
CCn1c(=O)c2c(=O)n(CC)c(=S)n3c2n(c1=S)CC3	76	–	–
CCn1c(=N)c2c(=O)n(CC)c(=S)n3c2n(c1=S)CC3	20	71.2	–
CCn1c(=O)c2c(=O)n(CC)c(=O)n3c2n(c1=O)CCC3	58	0	–
CCO/C(O)=C(\C1=NCCN1)c1nn2cc(-c3ccc(Br)cc3)nc2s1	31	0	–
